Test results as given in the supplement of paper PMC11451515.

Tests used:
Details in all cases: 48 h
NOMO1 [1] = assay: cell viability relative to DMSO control; higher = less cytotoxic
Procedure, shortened: (§1)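 Library compounds in DMSO were pin-dosed in an 11-point threefold series (47 μM to 0.79 nM) onto leukemia cells in 1536-well plates (5 μl). Plates held 500 cells/well of NOMO1 or SEM or 1000 cells/well of P12-Ichikawa, each adapted for at least four passages in each medium. Luminescence was read with CellTiter-Glo One after 48 h at 37°C. Viability means the per-plate percentage relative to DMSO wells, using cell-free wells as background.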

P12-Ichikawa [2] = assay: as above
Procedure, shortened: as §1

SEM cells [3] = assay: as above
Procedure, shortened: as §1

NOMO1 [4] = assay: AUC of viability dose-response curve (% viability x log10 dose units); higher = less sensitive
Procedure, shortened: (§2)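 Library compounds in DMSO were applied for 48 h at 37°C at 11 threefold doses (47 μM to 0.79 nM) to medium-adapted leukemia cells in 1536-well plates holding 500 or 1000 cells/well. Luminescence from CellTiter-Glo One was normalised plate by plate against DMSO and cell-free wells. Area under the curve came from trapezoidal integration of a log-logistic fit, after scaling curves that rose above full viability and discarding those that failed quality control. The fit had four parameters and used log10 doses.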

P12-Ichikawa [5] = assay: as above
Procedure, shortened: as §2

SEM cells [6] = assay: as above
Procedure, shortened: as §2

CC1OC(OC/2=C(/OC3=C(C(=CC(=C3)O)O)C2=O)C4=CC=C(O)C=C4)C(O)C(OC(C)=O)C1OC(C)=O (stereo not drawn)
cell viability [%]
Details	NOMO1 [1]	P12-Ichikawa [2]	SEM cells [3]
HPLM + 10% dialyzed FBS, 0.000781 µM	119	112	117
HPLM + 10% dialyzed FBS, 0.00234 µM	109	118	120
HPLM + 10% dialyzed FBS, 0.00702 µM	137	111	116
HPLM + 10% dialyzed FBS, 0.0211 µM	130	116	113
HPLM + 10% dialyzed FBS, 0.0632 µM	111	113	105
HPLM + 10% dialyzed FBS, 0.19 µM	110	108	112
HPLM + 10% dialyzed FBS, 0.569 µM	112	108	106
HPLM + 10% dialyzed FBS, 1.71 µM	112	107	113
HPLM + 10% dialyzed FBS, 5.12 µM	120	101	106
HPLM + 10% dialyzed FBS, 15.4 µM	101	103	102
HPLM + 10% dialyzed FBS, 46.1 µM	78.9	100	77.7
RPMI 5 mM glucose + 10% FBS, 0.000781 µM	120	108	–
RPMI 5 mM glucose + 10% FBS, 0.00234 µM	116	114	–
RPMI 5 mM glucose + 10% FBS, 0.00702 µM	110	115	–
RPMI 5 mM glucose + 10% FBS, 0.0211 µM	100	112	–
RPMI 5 mM glucose + 10% FBS, 0.0632 µM	117	120	–
RPMI 5 mM glucose + 10% FBS, 0.19 µM	111	117	–
RPMI 5 mM glucose + 10% FBS, 0.569 µM	96.8	103	–
RPMI 5 mM glucose + 10% FBS, 1.71 µM	96.9	108	–
RPMI 5 mM glucose + 10% FBS, 5.12 µM	103	105	–
RPMI 5 mM glucose + 10% FBS, 15.4 µM	94.3	96.4	–
RPMI 5 mM glucose + 10% FBS, 46.1 µM	68.9	103	–
RPMI 5 mM glucose + 10% dialyzed FBS, 0.000781 µM	96.7	114	100
RPMI 5 mM glucose + 10% dialyzed FBS, 0.00234 µM	108	119	101
RPMI 5 mM glucose + 10% dialyzed FBS, 0.00702 µM	109	117	114
RPMI 5 mM glucose + 10% dialyzed FBS, 0.0211 µM	111	115	102
RPMI 5 mM glucose + 10% dialyzed FBS, 0.0632 µM	112	116	110
RPMI 5 mM glucose + 10% dialyzed FBS, 0.19 µM	114	114	103
RPMI 5 mM glucose + 10% dialyzed FBS, 0.569 µM	118	109	98.1
RPMI 5 mM glucose + 10% dialyzed FBS, 1.71 µM	104	114	95.5
RPMI 5 mM glucose + 10% dialyzed FBS, 5.12 µM	111	111	108
RPMI 5 mM glucose + 10% dialyzed FBS, 15.4 µM	99.2	103	90.5
RPMI 5 mM glucose + 10% dialyzed FBS, 46.1 µM	77.2	104	77.1

AUC of viability dose-response curve
Details	NOMO1 [4]	P12-Ichikawa [5]	SEM cells [6]
HPLM + 10% dialyzed FBS	440	454	463
RPMI 5 mM glucose + 10% FBS	430	455	367
RPMI 5 mM glucose + 10% dialyzed FBS	466	460	465

Cc1cc(SCc2sc(-c3ccc(C(F)(F)F)c(F)c3)nc2C)ccc1OCC(=O)O
cell viability [%]
Details	NOMO1 [1]	P12-Ichikawa [2]	SEM cells [3]
HPLM + 10% dialyzed FBS, 0.000781 µM	104	106	104
HPLM + 10% dialyzed FBS, 0.00234 µM	110	104	107
HPLM + 10% dialyzed FBS, 0.00702 µM	120	100	105
HPLM + 10% dialyzed FBS, 0.0211 µM	87.7	92.4	40.9
HPLM + 10% dialyzed FBS, 0.0632 µM	114	105	103
HPLM + 10% dialyzed FBS, 0.19 µM	103	106	109
HPLM + 10% dialyzed FBS, 0.569 µM	110	106	108
HPLM + 10% dialyzed FBS, 1.71 µM	95.4	101	111
HPLM + 10% dialyzed FBS, 5.12 µM	93.7	100	105
HPLM + 10% dialyzed FBS, 15.4 µM	96.6	86.2	98.9
HPLM + 10% dialyzed FBS, 46.1 µM	92.9	91.5	96.1
RPMI 5 mM glucose + 10% FBS, 0.000781 µM	98.2	98.4	102
RPMI 5 mM glucose + 10% FBS, 0.00234 µM	90.4	102	74.9
RPMI 5 mM glucose + 10% FBS, 0.00702 µM	86	93.1	96.7
RPMI 5 mM glucose + 10% FBS, 0.0211 µM	90.3	81.6	43.2
RPMI 5 mM glucose + 10% FBS, 0.0632 µM	91	97.3	100
RPMI 5 mM glucose + 10% FBS, 0.19 µM	98.8	99.7	107
RPMI 5 mM glucose + 10% FBS, 0.569 µM	99.6	94.4	99.4
RPMI 5 mM glucose + 10% FBS, 1.71 µM	88.8	93.4	101
RPMI 5 mM glucose + 10% FBS, 5.12 µM	88.7	96.7	104
RPMI 5 mM glucose + 10% FBS, 15.4 µM	92.6	89.5	93.8
RPMI 5 mM glucose + 10% FBS, 46.1 µM	86.8	87.9	103
RPMI 5 mM glucose + 10% dialyzed FBS, 0.000781 µM	99.5	93.3	93.4
RPMI 5 mM glucose + 10% dialyzed FBS, 0.00234 µM	103	94.4	93.3
RPMI 5 mM glucose + 10% dialyzed FBS, 0.00702 µM	93.5	96.7	106
RPMI 5 mM glucose + 10% dialyzed FBS, 0.0211 µM	95	92.8	48.4
RPMI 5 mM glucose + 10% dialyzed FBS, 0.0632 µM	99.2	89.5	93.6
RPMI 5 mM glucose + 10% dialyzed FBS, 0.19 µM	111	97	104
RPMI 5 mM glucose + 10% dialyzed FBS, 0.569 µM	97.9	93.6	100
RPMI 5 mM glucose + 10% dialyzed FBS, 1.71 µM	94	92.8	100
RPMI 5 mM glucose + 10% dialyzed FBS, 5.12 µM	104	98	91.6
RPMI 5 mM glucose + 10% dialyzed FBS, 15.4 µM	87.4	80.9	101
RPMI 5 mM glucose + 10% dialyzed FBS, 46.1 µM	97	76.3	96.5

AUC of viability dose-response curve
Details	NOMO1 [4]	P12-Ichikawa [5]	SEM cells [6]
HPLM + 10% dialyzed FBS	458	466	461
RPMI 5 mM glucose + 10% FBS	439	449	432
RPMI 5 mM glucose + 10% dialyzed FBS	467	439	446

CCOc1ccccc1OCCNC(C)Cc1ccc(OC)c([S+](N)(=O)[O-])c1 (stereo not drawn)
cell viability [%]
Details	NOMO1 [1]	P12-Ichikawa [2]	SEM cells [3]
HPLM + 10% dialyzed FBS, 0.000781 µM	103	88.4	87.1
HPLM + 10% dialyzed FBS, 0.00234 µM	105	104	82.9
HPLM + 10% dialyzed FBS, 0.00702 µM	96.8	113	101
HPLM + 10% dialyzed FBS, 0.0211 µM	121	109	103
HPLM + 10% dialyzed FBS, 0.0632 µM	129	103	116
HPLM + 10% dialyzed FBS, 0.19 µM	119	111	101
HPLM + 10% dialyzed FBS, 0.569 µM	120	114	125
HPLM + 10% dialyzed FBS, 1.71 µM	114	105	103
HPLM + 10% dialyzed FBS, 5.12 µM	109	104	119
HPLM + 10% dialyzed FBS, 15.4 µM	115	108	90.9
HPLM + 10% dialyzed FBS, 46.1 µM	102	107	85.8
RPMI 5 mM glucose + 10% FBS, 0.000781 µM	98.8	104	93.4
RPMI 5 mM glucose + 10% FBS, 0.00234 µM	110	111	85.9
RPMI 5 mM glucose + 10% FBS, 0.00702 µM	115	111	101
RPMI 5 mM glucose + 10% FBS, 0.0211 µM	117	110	118
RPMI 5 mM glucose + 10% FBS, 0.0632 µM	105	114	104
RPMI 5 mM glucose + 10% FBS, 0.19 µM	112	106	106
RPMI 5 mM glucose + 10% FBS, 0.569 µM	102	114	115
RPMI 5 mM glucose + 10% FBS, 1.71 µM	101	114	114
RPMI 5 mM glucose + 10% FBS, 5.12 µM	109	117	107
RPMI 5 mM glucose + 10% FBS, 15.4 µM	102	117	97.6
RPMI 5 mM glucose + 10% FBS, 46.1 µM	101	114	105
RPMI 5 mM glucose + 10% dialyzed FBS, 0.000781 µM	90.1	82.8	112
RPMI 5 mM glucose + 10% dialyzed FBS, 0.00234 µM	108	103	88.9
RPMI 5 mM glucose + 10% dialyzed FBS, 0.00702 µM	110	101	115
RPMI 5 mM glucose + 10% dialyzed FBS, 0.0211 µM	112	104	126
RPMI 5 mM glucose + 10% dialyzed FBS, 0.0632 µM	111	103	115
RPMI 5 mM glucose + 10% dialyzed FBS, 0.19 µM	108	95.8	109
RPMI 5 mM glucose + 10% dialyzed FBS, 0.569 µM	109	103	130
RPMI 5 mM glucose + 10% dialyzed FBS, 1.71 µM	101	112	129
RPMI 5 mM glucose + 10% dialyzed FBS, 5.12 µM	117	110	108
RPMI 5 mM glucose + 10% dialyzed FBS, 15.4 µM	104	109	127
RPMI 5 mM glucose + 10% dialyzed FBS, 46.1 µM	105	102	114

AUC of viability dose-response curve
Details	NOMO1 [4]	P12-Ichikawa [5]	SEM cells [6]
HPLM + 10% dialyzed FBS	468	471	459
RPMI 5 mM glucose + 10% FBS	461	462	462
RPMI 5 mM glucose + 10% dialyzed FBS	466	471	464
